Measured values from publication PMC9119314 (Frontiers in Pharmacology, 2022).

Assays:
[1] = test system: P. falciparum K1; assay: In vitro antiplasmodial activity, P. falciparum K1 (lactate dehydrogenase assay); assay type: cell-based, Plasmodium falciparum; details: Plasmodium falciparum; chloroquine-resistant strain K1, 48 h, mean ± SE; read-out: Activity against P. falciparum K1, IC50
Experimental: P. falciparum (K1 clone) was maintained in human erythrocytes prepared from the donated blood samples (blood groups unknown, Ethical Tissue, University of Bradford), suspended in the RPMI 1640 medium as previously described ([Wright et al., 2001]), except that serum was replaced with Albumax II, [5% (^w/v)]. […] Twofold serial dilutions were made in 96-well microtiter plates in duplicate, and infected erythrocytes were added to give a final volume of 100 µL with 2.5% hematocrit and 1% parasitemia. Chloroquine diphosphate was used as a positive control, and uninfected and infected erythrocytes without compounds were included in each test. The plates were placed into a modular incubator; gassed with 93% nitrogen, 3% oxygen, and 4% carbon dioxide; and incubated at 37°C for 48 h. The parasite growth was assessed by measuring lactate dehydrogenase activity as described by [Makler et al. (1993)]. The reagent used contained the following in each mL: acetylpyridine adenine dinucleotide (APAD), 0.74 mg; lithium lactate, 19.2 mg; diaphorase, 0.1 mg; Triton X-100, 2 μL; nitroblue tetrazolium, 1 mg; and phenazine ethosulphate, 0.5 mg. Fifty microliter of this reagent was added to each well and mixed; plates were incubated for 15 min at 37°C. The optical densities were read at 550 nm using an Azure 96-well microplate reader (Azure Biosystems Inc.), and % inhibition of growth was calculated by comparison with the control values. IC50 values were determined using linear regression analysis (Microsoft Excel). A minimum of three separate determinations was carried out for each compound.

[2] = test system: P. falciparum 3D7; assay: In vitro antiplasmodial activity, P. falciparum 3D7 (SYBR Green I); assay type: cell-based; details: Plasmodium falciparum; chloroquine-sensitive strain 3D7, 48 h; read-out: Activity against P. falciparum 3D7, IC50
Experimental: (§1) P. falciparum (3D7 clone) and P. knowlesi (A1-H.1 clone) were maintained in culture in RPMI 1640 supplemented with 25 mM HEPES, 25 mM NaHCO3, 10 mM D-glucose, 2 mM L-glutamine, 50 mg/L hypoxanthine, 25 mg/L gentamicin sulfate, 5 g/L Albumax II, and 10% (v/v) equine serum (Thermo Fisher Scientific, 26-050-088). The P. falciparum (3D7) and P. knowlesi (A1-H.1) parasites were grown in human A^+ red blood cells (National Health Blood and Transplant, United Kingdom). The parasites were incubated in sealed flasks at 37°C under a culture gas mixture of 96% N2, 3% CO2, and 1% O2. ([van Schalkwyk et al., 2019]). The compounds were initially dissolved in DMSO prior to diluting in RPMI. All experiments were initiated using unsynchronized parasites with both the parasitemia and hematocrit set to 1%. Drug susceptibility assays were set up in 96-well, flat-bottom microplates in a final volume of 200 μL, as described previously ([van Schalkwyk et al., 2017]). The controls were included for the background fluorescence (0% viability; parasites exposed to a supralethal 10 μM chloroquine concentration) and 100% growth (parasites in drug-free wells). The plates were incubated for one complete life cycle (27 h for P. knowlesi or 48 h for P. falciparum in vitro) at 37°C in a modular incubation chamber (Billups-Rothenburg Inc.) under the culture gas. Upon termination of the assay, the plates were stored at −20°C overnight. The SYBR Green I fluorescent method was used to measure parasite survival ([Bennett et al., 2004]; [Smilkstein et al., 2004]). After the microplates were thawed, 100 μL from each well was transferred into a duplicate plate. To this was added 100 μL of SYBR green solution [SYBR Green I (Thermo Fisher Scientific, S7563), diluted 1:5000 in a lysis buffer made of 20 mM Tris, 5 mM EDTA, 0.008% (w/v) saponin, 0.08% (v/v) Triton X-100, pH 7.5]. The plates were stored in the dark for 1 h before fluorescence was read at a 490 nm excitation wavelength and a 520 nm emission wavelength on a Spectramax M3 microplate reader (Molecular Devices) ([van Schalkwyk et al., 2017]). The background fluorescence (wells with parasites at 0% viability) was subtracted from all drug assay wells, and the parasite proliferation was determined as a percentage of the fluorescence in the drug-free control wells.

[3] = test system: P. knowlesi A1-H.1; assay: In vitro antiplasmodial activity, P. knowlesi A1-H.1 (SYBR Green I); assay type: cell-based, Plasmodium knowlesi; details: Plasmodium knowlesi, 27 h, read-out: Activity against P. knowlesi A1-H.1, IC50, 27 h, ± SD
Experimental: as §1

[4] = test system: P. falciparum (NF54-Mal8p1.16-GFP-Luc) late-stage gametocytes; assay: microbe, parasite or virus in culture; assay type: cell-based, Plasmodium falciparum; details: Plasmodium falciparum, NF54, 48 h, read-out: Activity against late-stage gametocytes IC50
Experimental: Gametocytes were produced as per [Reader et al. (2015]; [2021)] from P. falciparum NF54-Mal8p1.16-GFP-Luc ([Adjalley et al., 2011]), and each batch was validated for viability and functionality before use. […] Drug assays were set up on day 10 (representing late gametocytes, >90% stage IV/V gametocytes) using a 2–3% gametocytemia, 1.5% hematocrit culture. The drug pressure was for 48 h under stationary, hypoxic conditions (90% N2, 5% O2, and 5% CO2) at 37°C. Luciferase activity was determined in 30 μL parasite lysates by adding 30 μL luciferin substrate (Promega Luciferase Assay System) at room temperature and detection of resultant bioluminescence at an integration constant of 10 s with the GloMax®-Multi + Detection System with Instinct® Software. Methylene blue (5 μM) and an internal control (MMV390048, 5 μM) were routinely included as controls.

[5] = test system: A2780/WT cells; assay: Chemosensitivity MTT assay, A2780 wild type; assay type: cell-based, human; details: Homo sapiens, A2780, 96 h, ± SE, read-out: Activity against A2780/WT cells, IC50
Experimental: (§2) The chemosensitivity of compounds 3–6 was assessed in the wild-type immortalized human ovarian adenocarcinoma cell line A2780 and its daughter cell lines, which are resistant to the standard cancer chemotherapeutics doxorubicin (A2780/ADR) and cisplatin (A2780/CIS, all cell lines from ECACC, Salisbury, United Kingdom). A modified MTT assay was used ([Shnyder et al., 2008]). Cells (2 × 10^4/ml) were inoculated into each well of a 96-well plate and incubated for 24 h at 37°C in a humidified atmosphere containing 5% CO2. Compounds were then added at a range of concentrations to each well, and the plates were then incubated for a further 96 h. After 96 h, the culture medium was removed and 200 μL of 0.5 mg ml^–1 MTT solution (Sigma) in the complete medium was added to each well. Following a further 4 h incubation, the solution was removed from each well and 150 μL of DMSO was added to solubilize the formazan crystals resulting from MTT conversion. The absorbance values for the resulting solutions were read at 540 nm on an Azure 96-well microplate reader (Azure Biosynstems Inc.), and the cell survival was calculated as the absorbance of treated cells divided by the control.

[6] = test system: A2780/ADR cells; assay: Chemosensitivity MTT assay, doxorubicin-resistant A2780/ADR; assay type: cell-based; details: Homo sapiens, 96 h, ± SE, read-out: Activity against A2780/ADR cells, IC50
Experimental: as §2, with “A” for “The chemosensitivity of compounds 3–6 was assessed in the wild-type immortalized human ovarian adenocarcinoma cell line A2780 and its daughter cell lines, which are resistant to the standard cancer chemotherapeutics doxorubicin (A2780/ADR) and cisplatin (A2780/CIS, all cell lines from ECACC, Salisbury, United Kingdom). A”

[7] = test system: A2780/cis cells; assay: Chemosensitivity MTT assay, cisplatin-resistant A2780/CIS; assay type: cell-based, human; details: Homo sapiens, A2780cis, 96 h, ± SE, read-out: Activity against A2780/cis cells, IC50
Experimental: as §2

[8] = test system: T. brucei bloodstream forms (strain 427, derivative 221); details: ref Oluwafemi et al. 2009; read-out: Activity against T. brucei IC50; cited from earlier work
[9] = test system: P. berghei; details: P. berghei in mice, oral, 50 mg/kg/day; ref Wright et al., 1996; cited from earlier work
[10] = test system: P. falciparum gametocytes; design: method as in Forkuo et al., 2017; details: ref Forkuo et al., 2017; read-out: IC50 against gametocytes, previous data; cited from earlier work

Compound `Cn1c2c3ccccc3nc-2cc2ccccc21` [Compound 1, cryptolepine] has an IC50 [1] of 440 ± 220 nM, an IC50 [2] of 460 ± 40 nM and an IC50 [3] of 1040 ± 23 nM. It also gave an IC50 [4] of 2400 ± 300 nM, an IC50 [5] of 440 ± 200 nM and an IC50 [6] of 1270 ± 600 nM. For the same compound, the IC50 [7] was 670 ± 390 nM, the IC50 [8] was 306 nM and the “Suppression of parasitemia compared to untreated infected controls” value [9] was 80.5%. The IC50 [10] was 1970 nM.
